Measured values published in ChEMBL document CHEMBL3407452, “Linear and branched alkyl-esters and amides of gallic acid and other (mono-, di- and tri-) hydroxy benzoyl derivatives as promising anti-HCV inhibitors” (Eur J Med Chem, 2015).
Activity calls are given as the source filed them. The calls are words filed in the database; no cut-off is given here.

How the values were obtained:
[1] = system: Human immunodeficiency virus 2; assay: Antiviral activity against HIV2 ROD infected in human CEM cells assessed as reduction in virus-induced cytopathicity after 4 to 5 days by microscopy based syncytium cell formation assay; assay type: functional, organism-based, ISOLATE ROD, CCRF-CEM; conditions: Human immunodeficiency virus 2, ISOLATE ROD, CCRF-CEM; read-out: EC50
[2] = Cytotoxicity against human Huh5-2 cells after 72 hrs by MTS assay; assay type: cell-based, Huh-5-2
Hepatitis C virus = assay: Antiviral activity against HCV genotype 1b I389luc-ubi-neo/NS3-3'/5.1 replicons infected in human Huh5-2 HCV subgenomic replicon-containing cells assessed as reduction in virus replication after 3 days by luciferase reporter gene assay; assay type: functional, Hepacivirus hominis; conditions: Hepatitis C virus, genotype 1b, Huh-5-2, 72 h; for EC50: read-out: EC50
Felid alphaherpesvirus 1 = assay: Antiviral activity against feline herpesvirus; assay type: functional, organism-based
Influenza A virus = assay: Antiviral activity against influenza A virus (H1N1); assay type: functional, organism-based
Punta Toro virus = assay: Antiviral activity against punta toro virus; assay type: functional, organism-based
Chikungunya virus = assay: Antiviral activity against chikungunya virus; assay type: functional
Reovirus sp. = assay: Antiviral activity against reovirus; assay type: functional, organism-based
[3] = system: Human immunodeficiency virus 1; assay: Antiviral activity against HIV1 3B infected in human CEM cells assessed as reduction in virus-induced cytopathicity after 4 to 5 days by microscopy based syncytium cell formation assay; assay type: functional, organism-based, CCRF-CEM; conditions: Human immunodeficiency virus 1, 3B, CCRF-CEM; read-out: EC50
[4] = system: Vesicular stomatitis virus; assay: Antiviral activity against vesicular stomatitis virus; assay type: functional, organism-based
Human respirovirus 3 = assay: Antiviral activity against human parainfluenza virus 3; assay type: functional, organism-based
Sindbis virus = assay: Antiviral activity against sindbis virus; assay type: functional, organism-based
Influenza A virus H3N2 = assay: Antiviral activity against influenza A virus H3N2; assay type: functional, organism-based
Coxsackievirus B4 = assay: Antiviral activity against human coxsackievirus B4; assay type: functional, organism-based
Feline coronavirus = assay: Antiviral activity against feline coronavirus; assay type: functional, organism-based
[5] = Cytotoxicity against human CEM cells assessed as inhibition of cell proliferation; assay type: cell-based; conditions: CEM cells (CCRF-CEM)
[6] = system: Respiratory syncytial virus; assay: Antiviral activity against RSV; assay type: functional, organism-based
Vaccinia virus = assay: Antiviral activity against vaccinia virus; assay type: functional, organism-based; conditions: Orthopoxvirus vaccinia
[7] = Selectivity index, ratio of CC50 for human CEM cells to EC50 for HIV1 3B; assay type: toxicity, cell-based, CCRF-CEM; conditions: read-out: Ratio CC50/EC50

O=C(NCCCCCCNC(=O)c1ccc(O)c(O)c1O)c1ccc(O)c(O)c1O
EC50 [1]: > 50 µM | CC50 at 72 h [2]: 32 µM | EC50 (Hepatitis C virus): 14 µM | Activity (Felid alphaherpesvirus 1): inactive | Activity (Influenza A virus): inactive | Activity (Punta Toro virus): inactive | Activity (Chikungunya virus): inactive | Activity (Reovirus sp.): inactive | EC50 [3]: > 50 µM | Activity [4]: inactive | Activity (Human respirovirus 3): inactive | Activity (Sindbis virus): inactive | Activity (Influenza A virus H3N2): inactive | Activity (Coxsackievirus B4): inactive | Activity (Feline coronavirus): inactive | CC50 [5]: 102 µM | Activity [6]: inactive | Activity (Vaccinia virus): inactive

O=C(NCCCCCCCCCCCCNC(=O)c1cc(O)c(O)c(O)c1)c1cc(O)c(O)c(O)c1
EC50 [1]: 26 µM | CC50 at 72 h [2]: > 100 µM | EC90 (Hepatitis C virus): > 100 µM | EC50 (Hepatitis C virus): 27 µM | Activity (Felid alphaherpesvirus 1): inactive | Activity (Influenza A virus): inactive | Activity (Punta Toro virus): inactive | Activity (Chikungunya virus): inactive | Activity (Reovirus sp.): inactive | EC50 [3]: 19 µM | Activity [4]: inactive | Activity (Human respirovirus 3): inactive | Activity (Sindbis virus): inactive | Activity (Influenza A virus H3N2): inactive | Activity (Coxsackievirus B4): inactive | Activity (Feline coronavirus): inactive | CC50 [5]: 58 µM | Activity [6]: inactive | Activity (Vaccinia virus): inactive

O=C(NCCCCCCCCCCNC(=O)c1cc(O)c(O)c(O)c1)c1cc(O)c(O)c(O)c1
EC50 [1]: > 50 µM | CC50 at 72 h [2]: 47 µM | EC50 (Hepatitis C virus): 20 µM | Activity (Felid alphaherpesvirus 1): inactive | Activity (Influenza A virus): inactive | Activity (Punta Toro virus): inactive | Activity (Chikungunya virus): inactive | Activity (Reovirus sp.): inactive | EC50 [3]: > 50 µM | Activity [4]: inactive | Activity (Human respirovirus 3): inactive | Activity (Sindbis virus): inactive | Activity (Influenza A virus H3N2): inactive | Activity (Coxsackievirus B4): inactive | Activity (Feline coronavirus): inactive | CC50 [5]: 86 µM | Activity [6]: inactive | Activity (Vaccinia virus): inactive

O=C(NCCCCN(CCCNC(=O)c1cc(O)c(O)c(O)c1)C(=O)c1cc(O)c(O)c(O)c1)c1cc(O)c(O)c(O)c1
Activity (Felid alphaherpesvirus 1): inactive | Activity (Influenza A virus): inactive | Activity (Punta Toro virus): inactive | Activity (Chikungunya virus): inactive | Activity (Reovirus sp.): inactive | EC50 [3]: 18 µM | Activity [4]: inactive | selectivity ratio [7]: 6 | Activity (Human respirovirus 3): inactive | Activity (Sindbis virus): inactive | Activity (Influenza A virus H3N2): inactive | Activity (Coxsackievirus B4): inactive | Activity (Feline coronavirus): inactive | CC50 [5]: 107 µM | Activity [6]: inactive | Activity (Vaccinia virus): inactive

O=C(OCCCCCCOC(=O)c1cc(O)c(O)c(O)c1)c1cc(O)c(O)c(O)c1
EC50 [1]: ≥ 10 µM | CC50 at 72 h [2]: > 50 µM | EC50 (Hepatitis C virus): 16 µM | Activity (Felid alphaherpesvirus 1): inactive | Activity (Influenza A virus): inactive | Activity (Punta Toro virus): inactive | Activity (Chikungunya virus): inactive | Activity (Reovirus sp.): inactive | EC50 [3]: ≥ 10 µM | Activity [4]: inactive | Activity (Human respirovirus 3): inactive | Activity (Sindbis virus): inactive | Activity (Influenza A virus H3N2): inactive | Activity (Coxsackievirus B4): inactive | Activity (Feline coronavirus): inactive | CC50 [5]: 22 µM | Activity [6]: inactive | Activity (Vaccinia virus): inactive

CCOC(=O)c1cc(O)c(O)c(O)c1 [ETHYLGALLATE]
EC50 [1]: > 10 µM | CC50 at 72 h [2]: 45 µM | EC90 (Hepatitis C virus): > 45 µM | EC50 (Hepatitis C virus): 19 µM | Activity (Felid alphaherpesvirus 1): inactive | Activity (Influenza A virus): inactive | Activity (Punta Toro virus): inactive | Activity (Chikungunya virus): inactive | Activity (Reovirus sp.): inactive | EC50 [3]: > 10 µM | Activity [4]: inactive | Activity (Human respirovirus 3): inactive | Activity (Sindbis virus): inactive | Activity (Influenza A virus H3N2): inactive | Activity (Coxsackievirus B4): inactive | Activity (Feline coronavirus): inactive | CC50 [5]: 23 µM | Activity [6]: inactive | Activity (Vaccinia virus): inactive

O=C(OCCCCOC(=O)c1cc(O)c(O)c(O)c1)c1cc(O)c(O)c(O)c1
EC50 [1]: > 10 µM | CC50 at 72 h [2]: > 50 µM | EC90 (Hepatitis C virus): > 50 µM | EC50 (Hepatitis C virus): 39 µM | Activity (Felid alphaherpesvirus 1): inactive | Activity (Influenza A virus): inactive | Activity (Punta Toro virus): inactive | Activity (Chikungunya virus): inactive | Activity (Reovirus sp.): inactive | EC50 [3]: > 10 µM | Activity [4]: inactive | Activity (Human respirovirus 3): inactive | Activity (Sindbis virus): inactive | Activity (Influenza A virus H3N2): inactive | Activity (Coxsackievirus B4): inactive | Activity (Feline coronavirus): inactive | CC50 [5]: 21 µM | Activity [6]: inactive | Activity (Vaccinia virus): inactive
